Source: US20240148895A1, “ANTIBODY-DRUG CONJUGATE” (Eisai R&D Management Co., Ltd., priority 2022, published 2024)
pIC50: −log10 of the molar value.

Experiments:
[1] = tested on: AsPC-1/Cas9 cell line (human pancreatic cancer cell line AsPC-1); experiment: AsPC-1/Cas9 growth inhibition assay; assay type: cell-based; details: 5 days culture, CellTiter Glo 2.0, read-out: IC50 (Absolute IC50, 50% inhibition of cell growth)
Procedure: Human pancreatic cancer cell line AsPC-1 (ATCC Number CRL1682) was infected with Edit-R Lentiviral hCMV-Blast-Cas9 Nuclease Particle (Dharmacon, VCAS10124) in the presence of 8 μg/ml of Hexadimethrine bromide (Sigma, H9268), and after 24 hours it was exposed to 10 μg/ml of Blastcidin S (Thermo, A11139) to remove the uninfected cells, thereby establishing an AsPC-1/Cas9 cell line. The cells were maintenance cultured in a 5% CO2 incubator (37° C.) using RPMI-1640 (FujiFilm-Wako Pure Chemical Industries) containing 10% fetal bovine serum (FBS: SIGMA 173012) and penicillin/streptomycin (FujiFilm-Wako Pure Chemical Industries) (hereunder referred to simply as “culture medium”). After adding 25 μL of AsPC-1/Cas9 cell suspension prepared to 3.2×10^4 cells/mL using culture medium into each well of a 384-well plate (Greiner 781091), the cells were cultured overnight in a 5% CO2 incubator (37° C.). On the following day, 25 μL of the test substance diluted with culture medium was added to each well, and culturing was continued for 5 days in a 5% CO2 incubator (37° C.). Next, 25 μL of CellTiter Glo™ 2.0 (Promega) was added to each well, and the plate contents were mixed for 5 minutes using a plate mixer. The plate was stationed for 10 minutes at room temperature while shielded from light, and then the luminous intensity was measured with an ENVISION™ (Perkin-Elmer). The luminescence value of the wells with addition of test substance was determined as a relative value, with 100% as the luminescence value of the wells with cells but without addition of the test substance and 0% as the luminescence value of the wells without cells. A plot of test substance concentration against luminescence value % approximated a 4-parameter logistic curve, and the test substance concentration necessary for 50% inhibition of cell growth (Absolute IC50) was calculated, and is shown in Table 10. In Table 10, the antibodies listed as “CEACAM6_#84.7” are the anti-CEACAM6 antibody of Example 301-1, the antibodies listed as “003” are the anti-folate receptor α antibody of Example 301-2, and the antibodies listed as “345A12” are the anti-mesothelin antibody of Example 301-3.
According the same method as in the AsPC-1/Cas9 growth inhibition assay described in Example 313 above, the test substance concentration necessary for 50% inhibition of cell growth (Absolute IC50) in the ADC described in Example 318 was calculated and is shown in Table 12.

[2] = target: T1, BRD4(BD1+BD2) protein (Homo sapiens, UniProt O60885); experiment: BRD4 binding inhibition assay (TR-FRET); details: BRD4(BD1+BD2) TR-FRET Assay Kit, reaction 2 hours at room temperature; read-out: IC50 (concentration necessary for 50% inhibition of BRD4 binding activity)
T1 construct: 5 μL of BRD4(BD1+BD2) protein solution prepared to 3.6 ng/μL; purchased BPS Bioscience Inc. 32612
Procedure: This assay measures binding inhibition activity of the test substance on the bromodomain of BRD4 protein.
BRD4 binding inhibition activity assay was carried out using a BRD4(BD1+BD2)TR-FRET Assay Kit (BPS Bioscience Inc. Catalog #32612), according to the attached instructions. In a flat-bottom 384-well white plate (Greiner 781080) there was added 8 μL of Tb-labeled donor/dye-labeled acceptor solution diluted 160-fold with 1×BRD TR-FRET Assay Buffer1, with 5 μL of BET Bromodomain Ligand diluted 40-fold with 1×BRD TR-FRET Assay Buffer1 in the test substance measuring wells and the Positive Control wells, and 5 μL of Non-acetylated Ligand1 diluted 40-fold with 1×BRD TR-FRET Assay Buffer1 in the Negative Control wells. After adding 2 μL of test substance diluted with 1×BRD TR-FRET Assay Buffer1 to the test substance measuring wells, and 2 μL of Dimethyl Sulfoxide solution diluted 100-fold with 1×BRD TR-FRET Assay Buffer1 to the Positive Control wells and Negative Control wells, 5 μL of BRD4(BD1+BD2) protein solution prepared to 3.6 ng/μL with 1×BRD TR-FRET Assay Buffer1 was added and reaction was conducted for 2 hours at room temperature. The fluorescence intensity was measured at 620 nm and 665 nm with irradiation of 340 nm excitation light into each well, using an Envision™ (Perkin-Elmer). The ratio of fluorescence intensity at […] with respect to fluorescence intensity at 620 nm for each well was recorded as the TR-FRET ratio, and the TR-FRET ratio in the presence of the test substance was calculated with the Positive Control well value as 100%, subtracting the Negative Control well value. The concentration of test substance necessary for 50% inhibition of BRD4 binding activity (IC50) was calculated from the TR-FRET ratio, and shown in Table 1.

Row | Structure (SMILES) | pIC50 [1] | pIC50 [2]
1 | COc1cc(=O)n(C)cc1-c1ccc2nc(N)nc(C(CO)(CC3CC3)c3cccnc3)c2c1 (stereo not drawn) [Example 25, 5-(2-Amino-4-(1-cyclopropyl-3-hydroxy-2-(pyridin-3-yl)propan-2-yl)quinazolin-6-yl)-4-methoxy-1-methylpyridin-2(1H)-one] | 10.24 | 6.89
2 | C#CC1CCN(c2nc(C(CO)(OC3CC3)c3ccccc3)c3cc(-c4cn(C)c(=O)c5[nH]ccc45)ccc3n2)CC1 (stereo not drawn) [Example 26, 4-(4-(1-Cyclopropoxy-2-hydroxy-1-phenylethyl)-2-(4-ethynylpiperidin-1-yl)quinazolin-6-yl)-6-methyl-1,6-dihydro-7H-pyrrolo[2,3-c]pyridin-7-one] | 10.49 | 7.33
3 | Cn1cc(-c2ccc3nc(N4CCC(N5CCC(C)(N)CC5)CC4)nc(C(CO)(OC4CC4)c4ccccc4)c3c2)c2cc[nH]c2c1=O (stereo not drawn) [Example 27, 4-(2-(4-Amino-4-methyl-[1,4′-bipiperidin]-1′-yl)-4-(1-cyclopropoxy-2-hydroxy-1-phenylethyl)quinazolin-6-yl)-6-methyl-1,6-dihydro-7H-pyrrolo[2,3-c]pyridin-7-one] | – | 7.10
4 | C[C@@H]1CN(CC2CCN(c3nc(C(CN)(OC4CC4)c4ccccc4)c4cc(-c5cn(C)c(=O)c6[nH]ccc56)ccc4n3)CC2)[C@@H](C)CN1 (stereo partly drawn) [Example 28, 4-(4-(2-Amino-1-cyclopropoxy-1-phenylethyl)-2-(4-(((2S,5R)-2,5-dimethylpiperazin-1-yl)methyl)piperidin-1-yl)quinazolin-6-yl)-6-methyl-1,6-dihydro-7H-pyrrolo[2,3-c]pyridin-7-one] | 10.64 | 7.09
5 | C#CCNC1(C)CCN(C2CCN(c3nc(C(CO)(OC4CC4)c4ccccc4)c4cc(-c5cn(C)c(=O)c6[nH]ccc56)ccc4n3)CC2)CC1 (stereo not drawn) [Example 29, 4-(4-(1-Cyclopropoxy-2-hydroxy-1-phenylethyl)-2-(4-methyl-4-(prop-2-yn-1-ylamino)-[1,4′-bipiperidin]-1′-yl)quinazolin-6-yl)-6-methyl-1,6-dihydro-7H-pyrrolo[2,3-c]pyridin-7-one] | 10.39 | 7.24
6 | C#CC1(O)CCN(C2CCN(c3nc(C(CO)(OC4CC4)c4ccccc4)c4cc(-c5cn(C)c(=O)c6[nH]ccc56)ccc4n3)CC2)CC1 (stereo not drawn) [Example 30] | > 10.82 | 7.57
7 | C[C@@H]1CN(C2CCN(c3nc(C(CN)(OC4CC4)c4ccccc4)c4cc(-c5cn(C)c(=O)c6[nH]ccc56)ccc4n3)CC2)[C@@H](C)CN1 (stereo partly drawn) [Example 31] | 10.43 | 7.21
8 | CCCC(CO)(CCC)c1nc(N2CCC(CN3CCNCC3)CC2)nc2ccc(-c3cn(C)c(=O)cc3OC)cc12 [Example 32, 5-(4-(4-(Hydroxymethyl)heptan-4-yl)-2-(4-(piperazin-1-ylmethyl)piperidin-1-yl)quinazolin-6-yl)-4-methoxy-1-methylpyridin-2(1H)-one] | – | 7.09
9 | COc1cc(=O)n(C)cc1-c1ccc2nc(N3CCC(N4CCC(C)(N)CC4)CC3)nc(C(CO)(OC3CC3)c3cccc4ccccc34)c2c1 (stereo not drawn) [Example 33, 5-(2-(4-Amino-4-methyl-[1,4′-bipiperidin]-1′-yl)-4-(1-cyclopropoxy-2-hydroxy-1-(naphthalen-1-yl)ethyl)quinazolin-6-yl)-4-methoxy-1-methylpyridin-2(1H)-one] | > 10.82 | 6.36
10 | CNCCN(C)C(=O)OCC(OC1CC1)(c1ccccc1)c1nc(N2CCC(CN3C[C@@H](C)NC[C@@H]3C)CC2)nc2ccc(-c3cn(C)c(=O)cc3OC)cc12 (stereo partly drawn) [Example 34, 2-Cyclopropoxy-2-(2-(4-(((2S,5R)-2,5-dimethylpiperazin-1-yl)methyl)piperidin-1-yl)-6-(4-methoxy-1-methyl-6-oxo-1,6-dihydropyridin-3-yl)quinazolin-4-yl)-2-phenylethyl methyl(2-(methylamino)ethyl)carbamate] | – | 7.04
11 | Cn1cc(-c2ccc3nc(N4CCC(OC5CCNCC5)CC4)nc(C(CO)(c4ccccc4)c4ccccc4)c3c2)c2ccoc2c1=O [Example 35, 4-(4-(2-Hydroxy-1,1-diphenylethyl)-2-(4-(piperidin-4-yloxy)piperidin-1-yl)quinazolin-6-yl)-6-methylfuro[2,3-c]pyridine-7(6H)-one] | 10.42 | 7.06
12 | Cc1cc(-c2ccc3nc(N)nc([C@@](CO)(OC4CC4)c4ccccc4)c3c2)cn(C)c1=O [Example 36, (S)-5-(2-Amino-4-(1-cyclopropoxy-2-hydroxy-1-phenylethyl)quinazolin-6-yl)-1,3-dimethylpyridin-2(1H)-one] | 10.46 | 7.60
